Experimental data as given in patent publication US11110070B2 (priority 2015, dated 2021).
Entries after “also recorded” stand apart in the source; their conditions may differ. Counter-ions that a name gives are not always drawn.

Legend:
129S6/SvEv mice = assay: FST after prophylactic ketamine or ketamine metabolites (FIG. 15); format: in vivo; details: at 10 and 30 mg/kg
129S6/SvEvTac mice [1] = assay: Fighting behavior during SD bouts; format: in vivo; details: SD-Flx vs SD-Veh
Protocol: (§1) Adult aggressor CD-1 male mice were single-housed in Macrolon® polycarbonate resin cages (15.25 in×7.8 in×9.5 in) (Animal Care Systems, Inc., Centennial, Colo.). Male 129S6/SvEvTac mice (9 weeks of age) were subsequently placed into the resident. CD-1 mouse's cage. Three antagonistic encounters were allowed between the CD-1 mouse and the intruder. Each of these encounters typically lasted less than 5 min. Following the encounters, mice were separated by a polished stainless steel cage divider (Animal Care Systems, Inc., Centennial, Colo., P/N C79171), which allowed for olfactory and auditory communication, but limited visual or tactile contact. The partition was removed daily for 2 weeks and 3 antagonistic encounters were allowed between the mice each day. This procedure consistently yielded a submissive phenotype in the experimental intruder mice. Control (Ctrl) mice were group housed 4 to 5 per cage in Macrolon® polycarbonate resin cages without dividers.

C57BL/6NTac mice [2] = assay: FST in chronic corticosterone (CORT) model; format: in vivo; details: ketamine 90 mg kg^−1 or fluoxetine 18 mg kg^−1/day, before 3 weeks of CORT; hydrochloride
C57BL/6NTac mice [3] = assay: Tail suspension test (TST) after CORT; format: in vivo; details: after 4 weeks of CORT; ketamine 10 mg kg^−1 one injection or fluoxetine 18 mg kg^−1 per day; both time points
Protocol: Experiment 6 (Post-ketamine and post-fluoxetine in CORT); In C57BL/6NTac mice. vehicle or CORT was administered for 4 weeks in the drinking water. While administration with 0.45% β-CD or CORT continued, mice were injected with saline or ketamine (10 mg kg^−1), or were administered vehicle or chronic fluoxetine (18 mg kg^−1 per day in the drinking water).
The TST was administered as previously described (A2). Briefly, animals were suspended for 6 min and immobility during this period was assessed using an automated TST apparatus (Bioseb, Vitrolles, France). A specific strain gauge linked to a computer quantifies the time spent by each mouse trying to escape.

C57BL/6NTac mice [4] = assay: NSF in CORT model; format: in vivo; details: treatment after 4 weeks of CORT; 14 days after the start of treatment
Protocol: Experiment 5 (Pre-ketamine and pre-fluoxetine corticosterone (CORT)): C57BL16NTac mice were injected with ketamine (10, 30, 90 mg kg^−1, i.p.) 1 week before the start of CORT, or administered fluoxetine (18 mg kg^−1 per day) in the drinking water for 3 weeks before the start of CORT. Ketamine was purchased from Merial (100 mg/ml stock solution). Fluoxetine hydrochloride (160 μg/mL, equivalent to 18 mg kg^−1 per day in the drinking water) was purchased from Anawa Trading (Zurich, Switzerland) and dissolved in 0.45% hydroxypropyl-β-cyclodextrin (β-CD) (Sigma-Aldrich, Saint-Quentin Fallavier, France) solution. Following ketamine or fluoxetine treatment, CORT was administered for 3 weeks in the drinking water. CORT (4-pregnen-11b-DIOL-3 20-DIONE 21-hemisuccinate) (35 μg/ml) from. Sigma Aldrich (Saint-Quentin Fallavier, France) was dissolved in vehicle (0.45% β-CD). Control animals received vehicle (0.45% β-CD) throughout the duration of the experiment. […]
Testing was performed as previously described (A13). […] The latency of the mice to begin eating was recorded. Immediately after the latency was recorded, the food pellet was removed from the arena. The mice were then placed into a cage and the amount of food consumed in 5 min was measured (home cage consumption), followed by an assessment of post-restriction weight. […]

129S6/SvEvTac mice [5] = assay: Forced swim test (FST) in social defeat (SD) model; format: in vivo
Protocol: Experiment 1 (Pre-ketamine in social defeat (SD)): At 8 weeks of age, a single injection of saline (0.9% NaCl) or ketamine (K) (10, 30, or 90 mg kg^−1) (Ketaset III, Ketamine HCl, Fort Dodge Animal Health, Forth Dodge, Iowa) was administered. Ketamine was prepared in physiological saline and all injections were administered intraperitoneally (i.p.) in volumes of 0.1 cc per […]. […] At 9 weeks of age, 1 week following this injection, SD was started.
24 h after the last bout of SD, a single injection of saline or ketamine (30 mg kg^−1) was administered (mice were 11 weeks old). The forced swim test (PST) was administered 2 h following the injection.
(§2) Experiment 3 (Pre-fluoxetine in SD): At 6 weeks of age, fluoxetine hydrochloride (Fix) (BioTrend Chemicals AG, B6197) was administered in the drinking water (18 mg kg^−1/day) for 3 weeks before the start of SD. Starting at 9 weeks of age, SD was then administered for 2 weeks without vehicle or Flx in the drinking water.
as §1
The FST was administered as previously described (A11). Briefly, mice were placed into clear plastic buckets 20 cm in diameter and 23 cm deep filled ⅔ of the way with 22° C. water. Mice were videotaped, from the side for 6 min and were exposed to the swim test on 2 consecutive days. For the SI) experiments, scoring was performed using an automated Viewpoint Videotrack software package (http://www.viewpoint.fr/en/a/anxiety-and-depression). For the CORT experiments, automated scoring was done using the automated X'PERT EST software suite (Bioseb, Vitrolles, France). The dependent variable was immobility.

129S6/SvEvTac mice [6] = assay: Other behaviors following fluoxetine treatment before SD; format: in vivo; details: fluoxetine 3 weeks before SD
Protocol: as §2

[7] = Body weight in CORT model; format: in vivo, mice; details: ketamine 90 mg kg^−1 single injection or fluoxetine 18 mg kg^−1 for 3 weeks, before CORT
C57BL/6NTac mice [8] = assay: EPM in CORT model; format: in vivo; details: ketamine or fluoxetine before CORT
Protocol: Experiment 5 (Pre-ketamine and pre-fluoxetine corticosterone (CORT)): C57BL16NTac mice were injected with ketamine (10, 30, 90 mg kg^−1, i.p.) 1 week before the start of CORT, or administered fluoxetine (18 mg kg^−1 per day) in the drinking water for 3 weeks before the start of CORT. Ketamine was purchased from Merial (100 mg/ml stock solution). Fluoxetine hydrochloride (160 μg/mL, equivalent to 18 mg kg^−1 per day in the drinking water) was purchased from Anawa Trading (Zurich, Switzerland) and dissolved in 0.45% hydroxypropyl-β-cyclodextrin (β-CD) (Sigma-Aldrich, Saint-Quentin Fallavier, France) solution. Following ketamine or fluoxetine treatment, CORT was administered for 3 weeks in the drinking water. CORT (4-pregnen-11b-DIOL-3 20-DIONE 21-hemisuccinate) (35 μg/ml) from. Sigma Aldrich (Saint-Quentin Fallavier, France) was dissolved in vehicle (0.45% β-CD). Control animals received vehicle (0.45% β-CD) throughout the duration of the experiment.
Testing was performed as previously described (A14). […] For the 12956/SvEv experiments, videos were scored using behavioral tracking software (TopScan, CleverSys, Reston, Va.). For the C57BL/6Ntac experiments, all parameters were measured using a videotracker (EPM3C. Bioseb, Vitrolles, France).

Structure (SMILES)	prophylactic efficacy (behavioral despair, FST) (129S6/SvEv mice)	behavior during SD bouts (129S6/SvEvTac mice [1])	immobility time on day 2 in the FST (C57BL/6NTac mice [2])	immobility time in the TST (C57BL/6NTac mice [3])	latency to feed in NSF (C57BL/6NTac mice [4])	immobility time, day 2 of FST (129S6/SvEvTac mice [5]; Ctrl mice, fluoxetine 18 mg kg^−1 for 3 weeks, vs Ctrl-Veh)	immobility time, day 2 of FST (129S6/SvEvTac mice [5]; SD mice, fluoxetine 18 mg kg^−1 for 3 weeks before SD)	anxiety or cognition (129S6/SvEvTac mice [6])	CORT-induced increase in body weight [7]	time in the closed arms of EPM (anxiety-like phenotype) (C57BL/6NTac mice [8])
N[C@@]1(c2ccccc2Cl)CCC[C@@H](O)C1=O [HNK, (2R,6R)-hydroxynorketamine]	efficacious as prophylactics									
CNCCC(Oc1ccc(C(F)(F)F)cc1)c1ccccc1 (stereo not shown) [fluoxetine, fluoxetine hydrochloride]		do not display differences during SD bouts	decreased immobility time; also recorded: significantly reduced immobility	decreased immobility time in the TST	decreased the latency to feed	equal levels of immobility time	did not improve immobility time	did not significantly alter anxiety or cognition	prevented the CORT-induced increase in body weight	Neither ketamine nor fluoxetine robustly protected
